Results taken from US10106524B2, “2,3,4,5-tetrahydropyridin-6-amine and 3,4-dihydro-2H-pyrrol-5-amine compound inhibitors of beta-secretase” (Janssen Pharmaceutica NV, priority 2015, dated 2018).

Experiments:
[1] = biological target: T1, recombinant BACE1 protein (Homo sapiens, UniProt P56817); assay: BACE1 biochemical FRET based assay - Method 2; conditions: BACE1 0.04 μg/ml, 450 minutes, 20 μM substrate, pH 5.0; for IC50: read-out: Biochemical FRET based assay- Method 2 pIC50 (converted)
T1 construct: recombinant BACE1 protein in a final concentration of 1 μg/ml
Source text: BACE1 Biochemical FRET Based Assay
(§1) This assay is a Fluorescence Resonance Energy Transfer Assay (FRET) based assay. The substrate for this assay is an APP derived 13 amino acids peptide that contains the ‘Swedish’ Lys-Met/Asn-Leu mutation of the amyloid precursor protein (APP) beta-secretase cleavage site. This substrate also contains two fluorophores: (7-methoxycoumarin-4-yl) acetic acid (Mca) is a fluorescent donor with excitation wavelength at 320 nm and emission at 405 nm and 2,4-Dinitrophenyl (Dnp) is a proprietary quencher acceptor. […] Upon cleavage by BACE1, the fluorophore Mca is separated from the quenching group Dnp, restoring the full fluorescence yield of the donor. The increase in fluorescence is linearly related to the rate of proteolysis.
Briefly in a 384-well format recombinant BACE1 protein in a final concentration of 0.04 μg/ml is incubated for 450 minutes at room temperature with 20 μM substrate in incubation buffer (50 mM Citrate buffer pH 5.0, 0.05% PEG) in the presence of compound or DMSO. Next the amount of proteolysis is directly measured by fluorescence measurement (excitation at 320 nm and emission at 405 nm) at different incubation times (0, 30, 60, 90, 120 and 450 min). For every experiment a time curve (every 30 min between 0 min and 120 min) is used to determine the time where we find the lowest basal signal of the high control. The signal at this time (Tx) is used to subtract from the signal at 450 min. Results are expressed in RFU, as difference between T450 and Tx.
(§2) A best-fit curve is fitted by a minimum sum of squares method to the plot of % Controlmin versus compound concentration. From this an IC50 value (inhibitory concentration causing 50% inhibition of activity) can be obtained.

[2] = tested on: Abeta 1-42 produced and secreted by SKNBE2 cells expressing hAPP695; assay: Cellular αLisa assay in SKNBE2 cells - Abeta 42; type: cell-based, human; conditions: incubated for 18 hours; for IC50: Homo sapiens, read-out: Cellular αLisa assay in SKNBE2 cells Abeta 42 pIC50 (converted)
Description: Cellular αLisa Assay in SKNBE2 Cells
In two αLisa assays the levels of Abeta total and Abeta 1-42 produced and secreted into the medium of human neuroblastoma SKNBE2 cells are quantified. The assay is based on the human neuroblastoma SKNBE2 expressing the wild type Amyloid Precursor Protein (hAPP695). The compounds are diluted and added to these cells, incubated for 18 hours and then measurements of Abeta 1-42 and Abeta total are taken. Abeta total and Abeta 1-42 are measured by sandwich αLisa. αLisa is a sandwich assay using biotinylated antibody AbN/25 attached to streptavidin coated beads and antibody Ab4G8 or cAb42/26 conjugated acceptor beads for the detection of Abeta total and Abeta 1-42 respectively. In the presence of Abeta total or Abeta 1-42, the beads come into close proximity. The excitation of the donor beads provokes the release of singlet oxygen molecules that trigger a cascade of energy transfer in the acceptor beads, resulting in light emission. Light emission is measured after 1 hour incubation (excitation at […] and emission at 615 nm).
as §2

[3] = biological target: T2, recombinant BACE2 protein (Homo sapiens, UniProt Q9Y5Z0); assay: BACE2 biochemical FRET based assay; conditions: BACE2 0.4 μg/nil, 450 minutes, 10 μM substrate, pH 5.0; for IC50: read-out: Biochemical FRET based assay pIC50 (BACE2) (converted)
T2 construct: recombinant BACE2 protein in a final concentration of 0.4 μg/nil
T2 sequence (Q9Y5Z0 63-518): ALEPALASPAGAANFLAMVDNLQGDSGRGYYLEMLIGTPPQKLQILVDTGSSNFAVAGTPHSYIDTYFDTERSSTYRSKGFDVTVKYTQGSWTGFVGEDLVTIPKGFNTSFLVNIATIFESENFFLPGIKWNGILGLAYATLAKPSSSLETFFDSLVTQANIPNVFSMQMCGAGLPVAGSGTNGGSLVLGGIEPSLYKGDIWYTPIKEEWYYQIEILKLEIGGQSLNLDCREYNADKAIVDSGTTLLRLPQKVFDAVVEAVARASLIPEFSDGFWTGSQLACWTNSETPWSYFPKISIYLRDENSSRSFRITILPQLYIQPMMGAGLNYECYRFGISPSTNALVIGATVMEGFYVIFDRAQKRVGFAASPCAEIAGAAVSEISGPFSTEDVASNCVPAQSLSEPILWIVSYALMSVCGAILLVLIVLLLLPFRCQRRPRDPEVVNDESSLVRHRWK
Source text: BACE2 Biochemical FRET Based Assay
as §1, with “assay” for “assay is an APP derived 13 amino acids peptide that”, “the beta-secretase,” for “BACE1,”
Briefly in a 384-well format recombinant BACE2 protein in a final concentration of […] is incubated for 450 minutes at room temperature with 10 μM substrate in incubation buffer (50 mM Citrate buffer pH 5.0, 0.05% PEG, no DMSO) in the absence or presence of compound. Next the amount of proteolysis is directly measured by fluorescence measurement at T=0 and T=450 (excitation at 320 nm and emission at 405 nm). Results are expressed in RFU (Relative Fluorescence Units), as difference between T450 and T0.
as §2

T1 sequence (P56817 46-501): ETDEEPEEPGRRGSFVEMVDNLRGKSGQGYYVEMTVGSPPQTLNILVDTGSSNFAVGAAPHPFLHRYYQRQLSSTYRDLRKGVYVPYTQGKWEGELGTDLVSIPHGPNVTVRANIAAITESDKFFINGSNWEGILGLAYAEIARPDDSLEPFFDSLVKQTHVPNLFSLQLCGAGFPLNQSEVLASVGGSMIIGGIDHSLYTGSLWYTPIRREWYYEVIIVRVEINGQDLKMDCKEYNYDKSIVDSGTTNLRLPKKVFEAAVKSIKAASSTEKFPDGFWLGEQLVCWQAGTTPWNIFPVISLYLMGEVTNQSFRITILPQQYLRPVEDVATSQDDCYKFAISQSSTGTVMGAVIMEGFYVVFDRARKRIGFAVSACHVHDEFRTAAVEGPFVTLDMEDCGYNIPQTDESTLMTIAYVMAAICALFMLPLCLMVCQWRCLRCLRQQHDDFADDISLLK

Row | IC50 [1] | IC50 [2] | IC50 [3] | Molecule | Biochemical FRET based assay- Method 2 pIC50 [1] | Cellular αLisa assay in SKNBE2 cells Abeta 42 pIC50 [2] | Biochemical FRET based assay pIC50 (BACE2) [3]
1 | > 10000 nM | – | – | Cc1nc(C(=O)Nc2ccc(F)c([C@]3(C)N=C(N)C[C@@H]3C(F)(F)F)c2)co1 [Compound 35, N-[3-[(2R,3S)-5-amino-2-methyl-3-(trifluoromethyl)-3,4-dihydropyrrol-2-yl]-4-fluoro-phenyl]-2-methyl-oxazole-4-carboxamide] | – | – | –
2 | 1020 nM | – | – | Cc1nc(C(=O)Nc2ccc(F)c([C@@]3(C)N=C(N)C[C@H]3C(F)(F)F)c2)co1 [Compound 36, N-[3-[(2S,3R)-5-amino-2-methyl-3-(trifluoromethyl)-3,4-dihydropyrrol-2-yl]-4-fluoro-phenyl]-2-methyl-oxazole-4-carboxamide] | – | – | –
3 | 2950 nM | – | – | C[C@@]1(c2cc(Nc3ncccc3C#N)ccc2F)N=C(N)C[C@@H]1C(F)(F)F [Compound 39, 2-[3-[(2R,3S)-5-amino-2-methyl-3-(trifluoromethyl)-3,4-dihydropyrrol-2-yl]-4-fluoro-anilino]pyridine-3-carbonitrile] | – | – | –
4 | > 10000 nM | – | – | C[C@]1(c2cc(Nc3ncccc3C#N)ccc2F)N=C(N)C[C@H]1C(F)(F)F [Compound 38, 2-[3-[(2S,3R)-5-amino-2-methyl-3-(trifluoromethyl)-3,4-dihydropyrrol-2-yl]-4-fluoro-anilino]pyridine-3-carbonitrile] | – | – | –
5 | > 10000 nM | – | – | C[C@]1(c2cc(NC(=O)c3ccc(Br)cn3)ccc2F)N=C(N)C[C@H]1C(F)(F)F [Compound 41, N-[3-[(2S,3R)-5-amino-2-methyl-3-(trifluoromethyl)-3,4-dihydropyrrol-2-yl]-4-fluoro-phenyl]-5-bromo-pyridine-2-carboxamide] | – | – | –
6 | > 10000 nM | – | – | COc1cnc(C(=O)Nc2ccc(F)c([C@@]3(C)N=C(N)C[C@H]3C(F)(F)F)c2)cn1 [Compound 34, N-[3-[(2S,3R)-5-amino-2-methyl-3-(trifluoromethyl)-3,4-dihydropyrrol-2-yl]-4-fluoro-phenyl]-5-methoxy-pyrazine-2-carboxamide] | – | – | –
7 | > 10000 nM | – | – | COc1cccnc1Nc1ccc(F)c([C@@]2(C)N=C(N)C[C@H]2C(F)(F)F)c1 [Compound 37, N-[3-[(2S,3R)-5-amino-2-methyl-3-(trifluoromethyl)-3,4-dihydropyrrol-2-yl]-4-fluoro-phenyl]-3-methoxy-pyridin-2-amine] | – | – | –

More lines, now with the values behind:

Row | Molecule | IC50 [1] | IC50 [2] | IC50 [3] | Biochemical FRET based assay- Method 2 pIC50 [1] | Cellular αLisa assay in SKNBE2 cells Abeta 42 pIC50 [2] | Biochemical FRET based assay pIC50 (BACE2) [3]
8 | COCCOc1cnc(C(=O)Nc2ccc(F)c([C@@]3(C)N=C(N)C[C@H]3C(F)(F)F)c2)cn1 [Compound 30, N-[3-[(2S,3R)-5-amino-2-methyl-3-(trifluoromethyl)-3,4-dihydropyrrol-2-yl]-4-fluoro-phenyl]-5-(2-methoxyethoxy)pyrazine-2-carboxamide] | > 10000 nM | > 8910 nM | > 20000 nM | – | – | –
9 | C[C@]1(c2cc(NC(=O)c3cnc(OCC(F)(F)F)cn3)ccc2F)N=C(N)C[C@H]1C(F)(F)F [Compound 32, N-[3-[(2S,3R)-5-amino-2-methyl-3-(trifluoromethyl)-3,4-dihydropyrrol-2-yl]-4-fluoro-phenyl]-5-(2,2,2-trifluoroethoxy)pyrazine-2-carboxamide] | > 10000 nM | > 8910 nM | > 20000 nM | – | – | –
10 | (±)-N-[3-[(2S*,3R*)-5-amino-2-methyl-3-(trifluoromethyl)-3,4-dihydropyrrol-2-yl]-4-fluoro-phenyl]-5-(2,2,2-trifluoroethoxy)pyrazine-2-carboxamide [Compound 24] | – | – | – | 6.10 | 6.38 | <5
11 | CC1(c2cc(Nc3ncccc3C#N)ccc2F)N=C(N)CC1C(F)(F)F (racemic) [Compound 22, (±)-2-[3-[(2S*,3R*)-5-amino-2-methyl-3-(trifluoromethyl)-3,4-dihydropyrrol-2-1]-4-fluoro-anilino]pyridine-3-carbonitrile] | 3720 nM | 776 nM | ≥ 10000 nM | – | – | –
12 | COc1cccnc1Nc1ccc(F)c([C@]2(C)N=C(N)C[C@@H]2C(F)(F)F)c1 [Compound 28, N-[3-[(2R,3S)-5-amino-2-methyl-3-(trifluoromethyl)-3,4-dihydropyrrol-2-yl]-4-fluoro-phenyl]-3-methoxy-pyridin-2-amine] | 1200 nM | 347 nM | 617 nM | – | – | –
13 | C[C@]1(c2cc(NC(=O)c3ccc(C#N)cn3)ccc2F)N=C(N)C[C@H]1C(F)(F)F [Compound 26, N-[3-[(2S,3R)-5-amino-2-methyl-3-(trifluoromethyl)-3,4-dihydropyrrol-2-yl]-4-fluoro-phenyl]-5-cyano-pyridine-2-carboxamide] | > 10000 nM | > 8910 nM | > 10000 nM | – | – | –
14 | C[C@@]1(c2cc(NC(=O)c3ccc(C#N)cn3)ccc2F)N=C(N)C[C@@H]1C(F)(F)F [Compound 25, N-[3-[(2R,3S)-5-amino-2-methyl-3-(trifluoromethyl)-3,4-dihydropyrrol-2-yl]-4-fluoro-phenyl]-5-cyano-pyridine-2-carboxamide] | 182 nM | 60.3 nM | 1070 nM | – | – | –
15 | COCCOc1cnc(C(=O)Nc2ccc(F)c([C@]3(C)N=C(N)C[C@@H]3C(F)(F)F)c2)cn1 [Compound 29, N-[3-[(2R,3S)-5-amino-2-methyl-3-(trifluoromethyl)-3,4-dihydropyrrol-2-yl]-4-fluoro-phenyl]-5-(2-methoxyethoxy)pyrazine-2-carboxamide] | 447 nM | 151 nM | > 20000 nM | – | – | –
16 | C[C@@]1(c2cc(NC(=O)c3cnc(OCC(F)(F)F)cn3)ccc2F)N=C(N)C[C@@H]1C(F)(F)F [Compound 31, N-[3-[(2R,3S)-5-amino-2-methyl-3-(trifluoromethyl)-3,4-dihydropyrrol-2-yl]-4-fluoro-phenyl]-5-(2,2,2-trifluoroethoxy)pyrazine-2-carboxamide] | 457 nM | 257 nM | > 20000 nM | – | – | –
17 | COc1cnc(C(=O)Nc2ccc(F)c([C@]3(C)N=C(N)C[C@@H]3C(F)(F)F)c2)cn1 [Compound 27, N-[3-[(2R,3S)-5-amino-2-methyl-3-(trifluoromethyl)-3,4-dihydropyrrol-2-yl]-4-fluoro-phenyl]-5-methoxy-pyrazine-2-carboxamide] | 389 nM | 100 nM | 5890 nM | – | – | –
